Laboratory results published in ChEMBL document CHEMBL1136211, “Design of quinolinedione-based geldanamycin analogues” (2003).

Key:
Assay type in all cases: functional
[1] = tested on: Cancer cell lines; experiment: Concentration required to inhibit growth of cells in 60 cancer cell lines
[2] = tested on: Cancer cell lines; experiment: Concentration required to kill cells
[3] = tested on: Cancer cell lines; experiment: Concentration required to inhibit total growth of cells in 60 cancer cell lines; details: read-out: Log TGI (converted)

SMILES	GI50 [1]	LC50 [2]	TGI [3]
O=C1C(NCCCl)=CC(=O)c2nc(-c3ccccc3)ccc21	27.5 nM	2.04 µM	324 nM
O=C1C=C(N2CC2)C(=O)c2nc(-c3ccccc3)ccc21	263 nM	11.2 µM	1780 nM
O=C1C=C(N2CC2)C(=O)c2nc(-c3ccc4ccccc4c3)ccc21	3470 nM	40.7 µM	10700 nM
O=C1C(N2CC2)=CC(=O)c2nc(-c3ccc4ccccc4c3)ccc21	204 nM	5.62 µM	1070 nM
O=C1C(N2CC2)=CC(=O)c2nc(-c3ccccc3)ccc21	52.5 nM	4.07 µM	513 nM
O=C1C(N2CC2)=CC(=O)c2nc(-c3ccccn3)ccc21	646 nM	9.77 µM	2450 nM
O=C1/C(=N/CCO)C=C(O)c2nc(-c3ccccc3)ccc21	2950 nM	60.3 µM	20000 nM
